The values below come from patent US20070244162A1 (priority 2005, published 2007).

Format in all cases: cell-based
The test system of experiment [1] is Phytophthora infestans. In words: microbe, parasite or virus in culture. The settings on record: read-out: Fungicidal activity IC50, P. infestans.
Experiment [2] concerns Monilinia fructicola. In words: microbe, parasite or virus in culture. The settings on record: read-out: Fungicidal activity IC50, M. fructicola.
The subject of experiment [3] is Botrytis cinerea.
Experiment [4] relates to Septoria tritici. Put plainly: microbe, parasite or virus in culture. Conditions: for pIC50: Zymoseptoria tritici, read-out: Fungicidal activity IC50, S. tritici.
The subject of experiment [5] is Stagonospora nodorum. In words: microbe, parasite or virus in culture.

pIC50: −log10 of the molar value.

Broadly, the pIC50 is the IC50 on a negative log10 scale, so that one unit is a factor of ten. Consider `OC(c1cccnc1)c1c(-c2ccc(Cl)cc2)csc1-c1ccc(Cl)s1` (stereo not shown) [Compound 4, 4-(4-Chlorophenyl)-2-(5-chloro-2-thienyl)-3-[(3-pyridyl)hydroxymethyl]-thiophene], for which the pIC50 in experiment [1] is less than 4.00; in experiment [2], greater than 7.00; in experiment [5] (Parastagonospora nodorum, read-out: Fungicidal activity IC50, S. nodorum), 6.00 to 6.96. The “Fungicidal activity IC50, B. cinerea” value in experiment [3] is “B (c)”. Further, the “Fungicidal activity IC50, S. tritici” value in experiment [4] was “A (d)”.

For `OC(c1cccnc1)c1c(-c2ccc(F)cc2F)csc1-c1ccc(Cl)cc1` (stereo not shown) [Compound 6, 2-(4-Chlorophenyl)-4-(2,4-difluorophenyl)-3-[(3-pyridyl)hydroxymethyl]-thiophene], the pIC50 in experiment [1] is less than 4.00; in experiment [2], greater than 7.00. Moreover, the “Fungicidal activity IC50, B. cinerea” value in experiment [3] is recorded as “B (d)”. Further, in experiment [4], the “Fungicidal activity IC50, S. tritici” value is “A (b)”. Also, the “Fungicidal activity IC50, S. nodorum” value in experiment [5] was “B (c)”.

For the molecule `OC(c1cccnc1)c1c(-c2ccc(Cl)cc2)csc1-c1ccc(Cl)cc1` (stereo not shown) [Compound 8, 2,4-Bis-(4-chlorophenyl)-3-[(3-pyridyl)hydroxymethyl]-thiophene], the pIC50 in experiment [1] was less than 4.00. Besides, the “Fungicidal activity IC50, S. tritici” value in experiment [4] is recorded as “A (d)”. In experiment [5], the “Fungicidal activity IC50, S. nodorum” value was “B (d)”.

With `OC(c1cccnc1)c1c(-c2ccc(Cl)cc2)csc1-c1cccs1` (stereo not shown) [Compound 9, 4-(4-Chlorophenyl)-3-[(3-pyridyl)hydroxymethyl]-2-(2-thienyl)thiophene], the results for the pIC50 in experiment [1] and in experiment [2] were less than 4.00 and greater than 7.00, respectively. Moreover, in experiment [3], the “Fungicidal activity IC50, B. cinerea” value was “B (d)”. Also, in experiment [4], the “Fungicidal activity IC50, S. tritici” value is “A (c)”. In experiment [5], the “Fungicidal activity IC50, S. nodorum” value is reported as “A (d)”.

As to `OC(c1cccnc1)c1c(-c2cccs2)csc1-c1ccc(Cl)cc1` (stereo not shown) [Compound 12, 2-(4-Chlorophenyl)-3-[(3-pyridyl)hydroxymethyl]-4-(2-thienyl)thiophene], the pIC50 was less than 4.00 in experiment [1], greater than 7.00 in experiment [2] and greater than 7.00 in experiment [4]. Further, in experiment [3], the “Fungicidal activity IC50, B. cinerea” value is “A (d)”. Also, in experiment [5], the “Fungicidal activity IC50, S. nodorum” value is reported as “A (d)”.

As to `Cc1ccc(-c2csc(-c3ccc(F)cc3F)c2C(O)c2cccnc2)s1` (stereo not shown) [Compound 14, 2-(2,4-Difluorophenyl)-4-(5-methyl-2-thienyl)-3-[(3-pyridyl)hydroxymethyl]-thiophene], the values for the pIC50 in experiment [1], in experiment [2] and in experiment [4] were less than 4.00, greater than 7.00 and greater than 7.00, respectively. Besides, the “Fungicidal activity IC50, B. cinerea” value in experiment [3] is “B (d)”. In experiment [5], the “Fungicidal activity IC50, S. nodorum” value is on record as “A (b)”.
